According to US6677311B1, “Inducible HSV-TK in transformed cell populations” (priority 1988, dated 2004):
Several values for one entry are separate records, joined by “and”; a condition that tells them apart may be missing. Equal values may be shown once.

What was measured:
B and T lymphocytes = experiment: Flow cytometry of B and T lymphocytes after GCV treatment; assay type: in vivo, mouse
Description: Although the pattern of toxicity was clearly lymphoid-specific, it was not possible to evaluate the impact of GCV treatment on subpopulations of B and T cells by visual inspection. Flow cytometry was employed to analyze specific populations of B and T lymphocytes in mice subjected to various GCV treatment protocols. B lymphocytes were identified by analyzine for the markers, immunoglobulin and B220, and T lymphocytes were identified by Thy-1. After 7 days of GCV treatment, striking and different effects were observed on B and T lymphocytes in spleens of KHTK mice (FIG. 4). The most dramatic impact was on immunoglobulin and B220-positive B cells, which were reduced by a factor of 20 after GCV treatment. Cells bearing the T-cell surface marker, Thy-1, had decreased to 35% of the PBS group. Thus, although both B and T cells in the periphery were sensitive to the toxic action of GCV, B-cell lineages were more susceptible to ablation.
Mice of transgenic line 552 or nontransgenic littermates were treated with GCV for 5 days. The thymuses of individual mice were assayed by two-color flow cytometry and reported as a percentage of total thymocytes expressing the indicated markers. Data are typical of three experiments.
Mice were treated with GCV for 5 days and then two-color flow cytometry was performed to assess the effect of GCV treatment on double-positive, single-positive, and double-negative populations. In non-transgenic mice, 80% of cells were double-positive, 14% were single-positive, and 5% were double-negative. The composition of cells surviving GCV treatment in transgenic mice was markedly altered from that of the control population. There was a relative depletion by a factor of 4 in the double-positive L3T4^+, Lyt-2^+ population and a 3- to 5-fold increase in single-positive L3T4^+, Lyt-2^− and L3T4^−, Lyt-2^+ cells. There was also an increase in the percentage of cells expressing T-cell receptor complex-associated molecule CD3.ε. […] There was also a 6-fold increase in L3T4^−, Lyt-2^− cells. […] It should be pointed out that, although single-positive and CD3^+ cells are relatively enriched in the thymus of drug-treated animals (i.e., percentage), in terms of absolute cell number all thymic lineages are ablated in drug-treated transgenic animals.

thymocytes = experiment: Recovery of the lymphoid system following GCV treatment; assay type: in vivo, mouse
Protocol: Recovery of the Lymphoid System following GCV Treatment. One potential advantage of the conditional ablation method is the ability to remove the drug and evaluate the regenerative capabilities of the affected cell lineages. Repopulation of specific thymocyte lineages in KHTK mice was examined by subjecting mice to a severe ablation of lymphoid tissues followed by a recovery period. Accordingly, one group of animals was treated with GCV or PBS for 7 days followed by a 7-day recovery period. All groups were assayed simultaneously for the total number of thymocytes and the presence of specific antigenic markers. Transgenic mice treated with PBS had 1.1×10^8 thymocytes, whereas, after 7 days of GCV treatment, >99% of the thymocyte population was depleted. After 7 days of recovery, the total number of cells increased by 60-fold to nearly 50% of the PBS-treated control group. To characterize specific populations of thymocytes in the depleted and recovery thymus, […] flow cytometry was performed. […] Nontransgenic mice treated with GCV had the same percentage of L3T4^+ and Lyt-2^+ thymocytes as PBS-treated animals.

[1] = system: thymus, spleen, bone marrow and mesenteric lymph nodes
Description: The pathologic effect of GCV treatment was further evaluated by histological analysis.

[2] = system: Abelson leukemia virus induced lymphomas; experiment: Lymphoma response to GCV in HSV-TK transgenic and nontransgenic mice; assay type: in vivo, mouse
Protocol: Lymphomas were induced by injecting 5 to 6 week old transgenic mice (generated as described in Example III) intravenously with 0.5 ml of cell-free medium from confluent cultures of 1806-6 cells grown in Dulbecco's medium containing 7% calf serum and 7% fetal bovine serum (Green et al., 1987). These cells produce helper-free Abelson leukemia virus, which induces monoclonal lymphomas principally of the fre-B cell type. The virus encodes a transforming protein but is defective and therefore incapable of replicating or of encoding retroviral antigens in the lymphoma cells it helps to generate. Starting 14 days after virus administration, the mice were palpated daily for lymphomas. These were detectable as small, firm, bilateral nodules in the inguinal region, representing enlarged inguinal lymph nodes. In most cases, the presence of the tumors could be suspected 1-2 days preceding a definitive diagnosis, but the latter was made only after daily palpation confirmed the presence and the growing nature of the enlarged nodes. In the litters used, more than 90% of the injected mice developed lymphomas.
In initial experiments, several transgenic mice were treated with GCV for 5 days (10 doses) without precautions against infection, based on dose schedules previously found to be well tolerated in nontransgenic mice [Moolten, Cancer Res. 46:5276-5281 (1986)]. […] Presuming these deaths to be due to infections consequent to the lymphoid depletion, we limited the GCV therapy to five doses for the subsequent trials reported below and instituted the short-term infection control regimen detailed above, which entailed the use of sterile cages and sterile food and water during a 21-day isolation period. These modifications eliminated all drug-related deaths.
GCV treatment was begun when lymphomas first appeared. […] After it was determined that death inevitably followed these preterminal symptoms, usually within 4 days, were killed animals when the symptoms first appeared rather than utilizing natural death as a survival end point; in the few cases where mice died with large tumors but without preterminal symptoms, the day of natural death was recorded as the end point. This practice introduced about 4 days of imprecision into the estimates of median survival but conforms to current humane guidelines [Medical Research Council, UK Coordinating Committee on Cancer Research: guidelines for the welfare of animals in experimental neoplasia (1988); Kallman et al., Cancer Res. 45:6541-6544 (1985)]. The transgenic mice and littermates were used from 10 litters born to 6 female line 563 transgenic mice mated to BALB/c males. The other nontransgenic controls listed comprised, in the GCV-treated group, 15 C57B1/6×BALB/c (CB6) mice F1 and F2generations) and 8 CB6F1×BALB/c mice, and in the untreated group 29 CB6 (F1 and F2,5 CB6F1×BALB/c, and 15 BALB/c mice. Since the founder mouse of the 563 line was heterozygous for genes derived from C57B1/6 and BALB/c mice, these additional mice complemented the littermate controls by eliminating the possibility that differences between transgenic mice and their littermates were attributable not to the transgene itself but to some other endogenous gene affecting the behavior of lymphomas that differ between C57B1/6 and BALB/c mice and which by accident of integration site found itself genetically linked to the transgene.

[3] = GCV serum and tissue concentration by miniosmotic pump (HPLC)
Protocol: Transgenic mice from founder line 563 and their non-transgenic litter mates were treated with the nucleoside analog GCV for 1 week by using a miniosmotic pump. […] A separate control group was implanted with a miniosmotic pump containing isotonic phosphate-buffered saline (PBS).

[4] = nontransgenic littermates, GCV 5 days
[5] = transgenic line 552, GCV 5 days
[6] = transgenic vs nontransgenic, GCV 5 days
[7] = after 7 days of recovery following 7 days GCV
[8] = transgenic line 563, 7 days GCV
[9] = HSV-TK transgenics, GCV five doses
[10] = Nontransgenics Line 563 littermates, GCV

## Nc1nc2c(ncn2COC(CO)CO)c(=O)[nH]1 [GCV, 9-[(1,3-dihydroxy-2-propoxy)methyl]guanine]
B and T lymphocytes; KHTK mice, 7 days GCV
  Thy-1 bearing cells in spleen: 35 % of the PBS group
  reduction factor of immunoglobulin and B220-positive B cells in spleen: 20
B and T lymphocytes; non-transgenic mice, GCV 5 days
  single-positive cells: 14%
B and T lymphocytes; [4]
  % thymocytes CD3.ε+: 35%
  % thymocytes L3T4+, Lyt-2+: 80%
  % thymocytes L3T4+, Lyt-2-: 10%
  % thymocytes L3T4-, Lyt-2+: 4%
  % thymocytes L3T4-, Lyt-2-: 5%
  Total cell number (thymus): 6.3 × 10^7
B and T lymphocytes; nontransgenic mice treated with GCV
  profile of antigenic markers: normal
B and T lymphocytes; [5]
  % thymocytes CD3.ε+: 76%
  % thymocytes L3T4+, Lyt-2+: 21%
  % thymocytes L3T4+, Lyt-2-: 27%
  % thymocytes L3T4-, Lyt-2+: 21%
  % thymocytes L3T4-, Lyt-2-: 30%
  Total cell number (thymus): 3.8 × 10^6
B and T lymphocytes; [6]
  increase in L3T4-, Lyt-2- cells: 6 fold
  relative depletion factor of double-positive L3T4+, Lyt-2+ population: 4
thymocytes; [7]
  increase of total number of thymocytes: 60 fold
  total number of thymocytes relative to PBS-treated control group: ~50%
thymocytes; nontransgenic mice, GCV 7 days and recovery
  nonspecific effects on T-cell lineages: no nonspecific effects
thymocytes; transgenic mice, after 7 days of GCV treatment
  thymocyte population depleted: > 99%
[1]; GCV-treated transgenic mice
  number of cells in the bone marrow: 15 % of control
  number of cells in the spleen: 15 % of control
  number of cells in the thymus: 2 % of control
[1]; mouse, in vivo
  cell counts of lymphoid tissues vs PBS-treated group: unchanged
  pathology in nontransgenic mice: no apparent pathology
[1]; [8]
  wet weights of lymph nodes: 20 % of control
  wet weights of the spleen and thymus: 15 % of control
[1]; transgenic mice, 7 days GCV
  histology of thymus: atrophied thymus with a virtual complete absence of the cortex and a hypocellular medulla
[2]; [9]
  Fraction of Mice with complete Regressions: 11 of 12 and 11/12
  Median survival (days) of mice with recurrent or persistent lymphoma: 39 days
  Number remaining recurrence-free for >100 days: 5
[2]; [10]
  Fraction of Mice with complete Regressions: 0/17
  Median survival (days) of mice with recurrent or persistent lymphoma: 13 days
  Number remaining recurrence-free for >100 days: 0
[2]; Other nontransgenics, GCV
  Fraction of Mice with complete Regressions: 0/23
  Median survival (days) of mice with recurrent or persistent lymphoma: 8 days
  Number remaining recurrence-free for >100 days: 0
[2]; three transgenic mice, GCV five doses
  survival of mice with late recurrences: 47 days and 63 days and 90 days
[2]; transgenic mice, GCV 5 days (10 doses), no precautions against infection
  tumor response: regressed and became undetectable after the fifth dose
[2]; transgenic mice, GCV 5 days (10 doses), no precautions against infection, usually during the second week
  outcome of mice: the mice died
[3]; miniosmotic pump, within 24 hr, HPLC
  steady-state serum concentration: 1 to 5 µM
[3]; relative to serum 1-5 μM
  concentration of GCV in all tissues assayed: comparable to this value
